Where no end group is shown, it is not given here.
Columns and labels:
[1] = tested on: H1993 adenocarcinoma cells; assay: Immunofluorescence staining (IFA) of FITC-labeled peptides; type: cell-based, human; conditions: 10 μg/mL FITC-labeled peptide, fixed H1993 cells
Procedure: (§1) H460 and H1993 cells were seeded and grown to about 50% confluence on cover slips. After the cells had been fixed with 2% paraformaldehyde, they were incubated with 10 μg/mL FITC-labeled HSP1, 2, 4 or control peptides. Then the slides were counterstained with 4′,6-diamidino-2-phenylindole (DAPI), mounted and examined under a Leica universal fluorescent microscope. The images were merged using the MetaMorph Image Analysis Software.

[2] = tested on: H460 large cell carcinoma cells; assay: as above; type: cell-based, human; conditions: 10 μg/mL FITC-labeled peptide, fixed H460 cells
Procedure: as §1

[3] = tested on: H460 cells; assay: Endocytosis assay (confocal microscopy); type: cell-based, human; conditions: peptide-conjugated LSRB; 4° C. vs 37° C.
Procedure: H460 cells were incubated with HSP1, HSP2, HSP4-LSRB or LSRB for 10 min at 4° C. and 37° C. After being washed with PBS, the cells were fixed by 4% paraformaldehyde, blocked by 1% BSA, and then stained with WGA-ALEXA FLUOR® […] and DAPI for cell membrane and nucleus. All fluorescence images were obtained by confocal microscopy.

[4] = tested on: H460 cells; assay: Uptake of targeting peptide-conjugated LSRB; type: cell-based, human; conditions: for uptake of LSRB: peptide-conjugated LSRB at high concentration / higher doses; for liposome internalization compared to non-targeting LSRB: peptide-conjugated liposomal SRB, time course, 37° C.
Procedure: (§2) H460 and H1993 cells were grown on a 24-well plate to 90% confluency, and 20, 10, 5, 2.5, 1.25, 0.625 μM HSP1, 2, 4-liposomal sulforhodamine B (LSRB) or LSRB in complete culture medium was added. The cells were incubated at 37° C., at the following time periods: 10, 30 min, 1, 2, 4, 8, 16 and 24 hours. At the indicated time point, cells were washed with PBS, and non-internalized LSRB on the cell surface was removed by adding 0.1 M Glycine, pH 2.8 for 10 min. Cells were then lysed with 200 μl 1% Triton X-100. Uptake of LD at low concentration in H1993 cells was performed using same protocol. For extraction of SRB or doxorubicin, 300 μl IPA (0.75 N HCl in isopropanol) was added to the lysate and shaken for 30 min. After the lysate was centrifuged at 12,000 rpm for 5 min, the amount of uptakes were determined by measuring Excitation/Emission wavelengths of fluorescence at 520/570 nm for SRB and 485/590 nm for doxorubicin using, a spectrofluorometer (SPECTRAMAX® M5, Molecular Devices). The concentration of SRB and doxambicin were calculated by interpolation using a standard curve.

[5] = tested on: H1993 cells; assay: Uptake of targeting peptide-conjugated LSRB; type: cell-based, human; conditions: peptide-conjugated liposomal SRB, time course, 37° C.
Procedure: as §2

[6] = tested on: human normal bronchial epithelial cell (NL20); assay: Flow cytometry surface binding of FITC-conjugated peptides to normal cells; type: cell-based; conditions: 20 μg/mL FITC-conjugated peptide, 4° C., 1 hour
Procedure: (§3) The lung cancer cell lines or control cells were collected using enzyme-free cell dissociation buffer, and then were incubated with 20 μg/mL FITC-conjugated HSP1, 2, 4 or control peptide at 4° C. for 1 hour. After washing, cells were analyzed by flow cytometer.

[7] = tested on: H460 cells; assay: In vitro cytotoxicity assay of targeting peptide-conjugated LD (MTT); type: cell-based, human; conditions: for decrease of the half maximal inhibitory concentration (IC50) compared to LD: peptide-conjugated LD at optimal peptide ratio, H460 cells; for reduction in IC50 in vitro: peptide-mediated DDS, summary statement
Procedure: H460 cells were seeded in 96-well plates (5000 cells/well) in complete culture media and were incubated overnight. Next day, cells were treated with varying concentration (0˜100 μM) of HSP1-LD, HSP2-LD, HSP4-LD or LD at 37° C. for 24 hours; After removal of the excess drug, the cells were washed once with PBS and continued to incubate with fresh culture medium for 48 h at 37° C. The cell viability was measured by adding 50 μl of MTT (Thiazolyl Blue Tetrazolium Bromide; Sigma-Aldrich) to each well of the plate. After 3.5 hours MTT incubation, 150 μl of Dimethyl sulfoxide (DMSO; Mallinckrodt Baker) was added to each well for 10 min, and the absorbance was determined with microplate reader (SPECTRAMAX® M5, Molecular Devices) at 540 nm.

[8] = tested on: H460 human lung large cell carcinoma xenografts; assay: Ligand-targeted therapy, lung large cell carcinoma xenograft model; type: in vivo, SCID mice; conditions: large tumor ~500 mm^3; 2 mg/kg/injection i.v. twice a week
Procedure: Female SCID mice 4-6 weeks of age were injected subcutaneously in the dorsolateral flank with human NSCLC cells. Mice with size-matched tumors (approximately 75 mm^3 for small tumor; 300 or 500 mm^3 for large tumor) were then randomly assigned to different treatment groups, and were injected intravenously with liposomal doxorubicin (LD), liposomal vinorelbine (LV), targeting peptide (HSP1, HSP2 or HSP4)-conjugated LD or LV, free doxorubicin (FD), free vinorelbine (FV) or equivalent volumes of saline. The dosages of drugs and administration time courses were described in figure legends depend on different experiment design. Mouse body weights and tumor sizes were measured twice a week. Tumor volumes were calculated according to this formula: length×(width)^2×0.52. Animal care was carried out in accordance with guidelines of Academia Sinica, Taipei, Taiwan. The protocol was approved by the Committee on the Ethics of Animal Experiments of Academia Sinica.

[9] = tested on: human lung cancer cell lines (H460, H661, H1993, H441, CL1-5, A549, H520, H1688); assay: Flow cytometry surface binding of FITC-conjugated peptides to lung cancer cell lines; type: cell-based; conditions: 20 μg/mL FITC-conjugated peptide, 4° C., 1 hour; large cell, adeno-, squamous cell and small cell carcinoma lines
Procedure: as §3

[10] = Pharmacokinetic and biodistribution study in mice bearing H460 xenografts; type: in vivo, SCID mice; conditions: single i.v. dose 2 mg/kg
Procedure: SCID mice bearing H460 lung cancer xenografts (˜300 mm^3) were injected in the tail vein with either free drug doxorubicin (FD), liposomal doxorubicin (LD), or targeting (HSP1, HSP2 or HSP4) LD at a single dose of 2 mg/kg. At 1 hr and 24 hr post-injection, blood samples were collected through submaxillary punctures before mice were anaesthetized and sacrificed (three mice in each group). Then the mice were perfused with 50 ml PBS through heart, xenograft tumors and organs (brain, lung, heart, liver, and kidney) were dissected, weighted, and homogenized to calculate amount of doxorubicin in tissues. Total doxorubicin was quantified by measuring fluorescence at λEx/Em=485/590 nm using a spectrofluorometer (SPECTRAMAX® M5, Molecular Devices).

[11] = tested on: A549 adenocarcinoma orthotopic model; assay: Combination therapy in orthotopic lung cancer model; type: in vivo, SCID mice; conditions: HSP4-mediated combinatorial liposomes
Procedure: SCID mice (6-week-old) were anesthetized with isofloruance mixed with oxygen and placed in the right decubitus position. The skin overlying the left chest wall in the mid-axillary line was prepared with alcohol, and the underlying, chest wall and intercostal spaces were visualized. […] After tumor injection, the mice were turned to left decubitus position and observed for 45 to 60 min until fully recovered.
Luciferase-expressing cancer cells were imaged and quantified using IVIS200 system (Xenogen Corporation, Alameda, Calif.) at 10 minutes after i.p. injection of LUCWERIN™ (Caliper Life Sciences) before drug administration each time.

Molecule | binding of FITC-labeled peptide in cell IFA [1] | binding of FITC-labeled peptide in cell IFA [2] | binding versus internalization compared to HSP2 and HSP4 [3] | uptake of LSRB [4] | liposome internalization compared to non-targeting LSRB [4] | liposome internalization compared to non-targeting LSRB [5] | surface binding of FITC-labeled peptide (FACS) [6] | decrease of the half maximal inhibitory concentration (IC50) compared to LD [7] [fold] | reduction in IC50 in vitro [7] | therapeutic efficacy of LD [8] | surface binding of FITC-labeled peptide (FACS) [9] | intracellular delivery of LSRB ([4]; peptide-conjugated LSRB at low LSRB concentrations) | half-life in plasma compared to liposomal formulations [10] | adverse effect (body weight loss) [11]
GAMHLPWHMGTL (also: FITC label) [HSP1] | can bind to a major group | can bind to a major group | stronger ability at binding than internalization | better uptake ability | enhanced liposome internalization | enhanced liposome internalization | not to human normal bronchial epithelial cell | 12.5 | about 10 fold | significantly improved therapeutic efficacy | prominent binding |  |  | 
KATEEQLKTVME (control peptide) [reference compound] | cannot | cannot |  |  |  |  |  |  |  |  |  |  |  | 
NPWEEQGYRYSM (also: FITC label) [HSP2] | can bind to a major group | can bind to a major group |  | no difference from non-targeting LSRB | enhanced liposome internalization | enhanced liposome internalization | not to human normal bronchial epithelial cell | 13 | about 10 fold | significantly improved therapeutic efficacy | prominent binding | prominent intracellular delivery |  | 
COc1cccc2c1C(=O)c1c(O)c3c(c(O)c1C2=O)C[C@@](O)(C(=O)CO)C[C@@H]3O[C@H]1C[C@H](N)[C@H](O)[C@H](C)O1 [FD, doxorubicin] |  |  |  |  |  |  |  |  |  |  |  |  | much shorter half-life in plasma | 
NNPWREMMYIEI [HSP4, NNPWREMMYIEI] |  |  |  |  |  |  |  |  |  |  |  |  |  | decreasing body weight loss

Source: patent US9387257B2, “Lung cancer specific peptides for targeted drug delivery and molecular imaging” (Academia Sinica, priority 2014, dated 2016)
